According to patent US8722849B2, “Polypeptides” (Novo Nordisk A/S, priority 2011, dated 2014):
In brackets after ≈: the same amount, converted by molar mass. Where two headings read alike, the source gives them in different places. Starred links: 1 amine or outer side, 2 acyl side, 3 side chain; linkers in the order of their positions; H or OH if unused. Positions of bridges follow the written chain, without caps; N, C: chain ends. Residues, ends and D or L forms follow the SMILES beside them. Groups on a side chain read outwards from the residue. *: point of attachment. C20 diacid = O=C(O)CCCCCCCCCCCCCCCCCCC(=O)*; γGlu = O=C(O)[C@H](CCC(=O)[*:2])N[*:1]; AEEA = NCCOCCOCC(=O)O

Assay: Assay (IV) determination of solubility
Assay type: physicochemical
Procedure, shortened: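 Solubility is measured across pH 3.0–8.0 by mixing a ~500 nmol/ml aqueous polypeptide stock 1:1 with 100 mM glycylglycine or bistrispropane buffers. Samples stand 18 hours at room temperature, then are centrifuged and the soluble concentration is determined by HPLC.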

[1] = pH 3, pH 3.0, read-out: Solubility pH 3.0
[2] = pH 4, pH 4.0, 18 hours at room temperature, Table 2, read-out: Solubility pH 4.0
[3] = pH 4, pH 4.0, read-out: Solubility pH 4.0
[4] = pH 5, pH 5.0, read-out: Solubility pH 5.0
[5] = pH 6, pH 6.0, read-out: Solubility pH 6.0
[6] = pH 6.5, pH 6.5, read-out: Solubility pH 6.5
[7] = pH 7, pH 7.0, read-out: Solubility pH 7.0
[8] = pH 7.5, pH 7.5, read-out: Solubility pH 7.5

Compound	solubility [1]	solubility [2]	solubility [3]	solubility [4]	solubility [5]	solubility [6]	solubility [7]	solubility [8]	solubility (pH 8, pH 8.0, read-out: Solubility pH 8.0)
CC[C@H](C)[C@H](NC(=O)[C@@H]1CCCN1C(=O)CNC(=O)[C@H](Cc1ccccc1)NC(=O)[C@H](CC(N)=O)NC(=O)[C@H](CCCCNC(=O)COCCOCCNC(=O)COCCOCCNC(=O)CC[C@H](NC(=O)CCCCCCCCCCCCCCCCCCC(=O)O)C(=O)O)NC(=O)[C@H](CO)NC(=O)[C@H](CO)NC(=O)[C@H](CCCNC(=N)N)NC(=O)[C@H](Cc1c[nH]cn1)NC(=O)[C@H](CC(C)C)NC(=O)[C@H](Cc1ccccc1)NC(=O)[C@H](CCC(=O)O)NC(=O)[C@H](C)NC(=O)[C@H](CC(C)C)NC(=O)[C@H](CCCNC(=N)N)NC(=O)[C@H](CCC(N)=O)NC(=O)[C@@H](NC(=O)[C@H](C)NC(=O)[C@@H]1CSSC[C@H](NC(=O)[C@@H](N)CCCNC(=N)N)C(=O)N[C@@H](CC(N)=O)C(=O)N[C@@H]([C@@H](C)O)C(=O)N[C@@H](C)C(=O)N[C@@H]([C@@H](C)O)C(=O)N1)[C@@H](C)O)C(=O)N[C@@H](CC(C)C)C(=O)N1CCC[C@H]1C(=O)N1CCC[C@H]1C(=O)N[C@H](C(=O)N[C@@H](CC(N)=O)C(=O)N[C@H](C(=O)NCC(=O)N[C@@H](CO)C(=O)N[C@@H](CC(N)=O)C(=O)N[C@H](C(=O)N[C@@H](Cc1ccc(O)cc1)C(N)=O)[C@@H](C)O)C(C)C)[C@@H](C)O [Example 14, N-epsilon21-[2-(2-{2-[2-(2-{2-[(S)-4-Carboxy-4-(19-carboxyheptadecanoylamino)butyrylamino]ethoxy}ethoxy)acetylamino]ethoxy}ethoxy)acetyl]-[Arg1,Glu14,His17,Arg18,Lys21]-pramlintide] (H-RCNTATCATQRLAEFLHRSSK([AEEA-AEEA-γGlu-C20 diacid])NFGPILPPTNVGSNTY-NH2; disulfide 2-7)	> 200 µM	> 200 µM	> 200 µM	> 200 µM	192 µM (≈ 923 µg/mL)	102 µM (≈ 490 µg/mL)	13 µM (≈ 62.5 µg/mL)	7 µM (≈ 33.7 µg/mL)	47 µM (≈ 226 µg/mL)
CC[C@H](C)[C@H](NC(=O)[C@H](CCCCNC(=O)COCCOCCNC(=O)COCCOCCNC(=O)CC[C@H](NC(=O)CCCCCCCCCCCCCCCCCCC(=O)O)C(=O)O)NC(=O)CNC(=O)[C@H](Cc1ccccc1)NC(=O)[C@H](CC(N)=O)NC(=O)[C@H](CC(N)=O)NC(=O)[C@H](CO)NC(=O)[C@H](CO)NC(=O)[C@H](Cc1c[nH]cn1)NC(=O)[C@H](Cc1c[nH]cn1)NC(=O)[C@H](CC(C)C)NC(=O)[C@H](Cc1ccccc1)NC(=O)[C@H](CCC(=O)O)NC(=O)[C@H](C)NC(=O)[C@H](CC(C)C)NC(=O)[C@H](CCCNC(=N)N)NC(=O)[C@H](CCC(N)=O)NC(=O)[C@@H](NC(=O)[C@H](C)NC(=O)[C@@H]1CSSC[C@H](NC(=O)[C@@H](N)CCCCN)C(=O)N[C@@H](CC(N)=O)C(=O)N[C@@H]([C@@H](C)O)C(=O)N[C@@H](C)C(=O)N[C@@H]([C@@H](C)O)C(=O)N1)[C@@H](C)O)C(=O)N[C@@H](CC(C)C)C(=O)N[C@@H](CO)C(=O)N[C@@H](CO)C(=O)N[C@H](C(=O)N[C@@H](CC(N)=O)C(=O)N[C@H](C(=O)NCC(=O)N[C@@H](CO)C(=O)N[C@@H](Cc1c[nH]cn1)C(=O)N[C@H](C(=O)N[C@@H](Cc1ccc(O)cc1)C(N)=O)[C@@H](C)O)C(C)C)[C@@H](C)O [Example 142, N-epsilon25-[2-(2-{2-[2-(2-{2-[(S)-4-Carboxy-4-(19-carboxyheptadecanoylamino)butyrylamino]ethoxy}ethoxy)acetylamino]ethoxy}ethoxy)acetyl]-[Glu14,His17,Lys25,Ser28,Ser29,His35]-pramlintide] (H-KCNTATCATQRLAEFLHHSSNNFGK([AEEA-AEEA-γGlu-C20 diacid])ILSSTNVGSHTY-NH2; disulfide 2-7)	> 200 µM	> 200 µM	> 200 µM	185 µM (≈ 884 µg/mL)	118 µM (≈ 564 µg/mL)	1 µM (≈ 4.78 µg/mL)	1 µM (≈ 4.78 µg/mL)	1 µM (≈ 4.78 µg/mL)	–
